Key:
[1] = biological target: T1, pH7 nSMase (Homo sapiens, UniProt Q92485); assay: pH7 nSMase assay in the presence of C11AG (membranes from Jurkat cells, Tris pH6.5); assay type: biochemical; conditions: pH7 nSMase versus pH8 nSMase
T1 construct: For pH7 nSMase assays, membranes from Jurkat cells (human T-cell lymphoma) were used; endogenous in cells; host or cells: Jurkat (human T-cell lymphoma) membranes, Triton X-100 eluate
T1 sequence (Q92485 19-455): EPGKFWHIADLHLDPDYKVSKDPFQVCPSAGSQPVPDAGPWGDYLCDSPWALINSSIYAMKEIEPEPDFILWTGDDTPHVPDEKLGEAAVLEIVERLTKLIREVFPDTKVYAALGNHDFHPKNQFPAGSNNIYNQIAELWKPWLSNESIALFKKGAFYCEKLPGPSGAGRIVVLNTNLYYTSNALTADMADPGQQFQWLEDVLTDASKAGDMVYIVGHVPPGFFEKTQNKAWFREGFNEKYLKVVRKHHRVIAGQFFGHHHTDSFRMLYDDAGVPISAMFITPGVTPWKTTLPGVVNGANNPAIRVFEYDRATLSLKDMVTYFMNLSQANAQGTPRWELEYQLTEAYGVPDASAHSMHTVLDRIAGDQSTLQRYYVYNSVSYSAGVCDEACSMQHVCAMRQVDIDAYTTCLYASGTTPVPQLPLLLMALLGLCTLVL
Procedure: SMase activities were determined in the presence of 0, 1, 10, 100 or 1000 μg/ml C11AG. C11AG-acetate was used as a stock solution of 10 mg/ml in water.
For pH7 nSMase assays, membranes from Jurkat cells (human T-cell lymphoma) were used.
From each preparation 5 μg of protein were used for (1) a pH7 nSMase assay (in 50 μl 50 mM Tris pH6.5, 5 mM MgCl2, 1 mM NaF, 1 mM NaVO3, 0.1% Triton X 100, 20 nCi ^14C sphingomyelin), (2) a pH8 nSMase assay (in 50 μl 50 mM Tris pH8.5, 5 mM MgCl2, 1 mM NaF, 1 mM NaVO3, 0.1% Triton X 100, 20 nCi ^14C sphingomyelin) and (3) an acidic SMase assay (in 50 μl 50 mM NaH2PO4 pH5.0, 5 mM MgCl2, 1 mM NaF, 1 mM NaVO3, 0.1% Triton X 100, 20 nCi ^14C sphingomyelin).
After 30 minutes phosphorylcholine (PCH) was extracted by the addition of 2 volumes methanol/chloroform (2/1). PCH counts were determined in an aliquot of 10 μl after separation on TLC plates (Merck 60, F254, running solvent: 0.9% NaCl/methanol/NH4OH (50/70/5, V/V/V) in a Digital Autoradiograph. PCH counts of the uninhibited reaction were set 100% enzyme activity. Each assay was done in quadruplicate.

[2] = tested on: cells with or lacking pH8 nSMase; assay: Sensitivity of cells to C11AG according to pH8 nSMase expression; assay type: cell-based
[3] = tested on: Human T-cell lymphoma cells (Jurkat); assay: Stimulation of anti-APO-1 (anti-CD95) induced apoptosis in Jurkat cells; assay type: cell-based; conditions: C11AG at 1 μg/ml, 24 hours, 37° C., FIG. 7
Procedure: Human T-cell lymphoma cells (Jurkat) were seeded in 96-well plates at a density of 10^5 cells per ml. An antibody directed against CD95 (anti-APO-1) was added at various concentrations with and without C11AG at 1 μg/ml. After incubation at 37° C. for 24 hours, cell numbers were determined afer vital staining. By Nicoleti staining it was confirmed that dead cells had died due to apoptosis. All assays were done in triplicate.

- fold more active on pH7 nSMase than on pH8 nSMase [1]: 200-1000 fold
SMILES: CCCCCCCCCCC=NNC(=N)N [C11AG, 1-(undecylidene-amino)guanidine]
- response to C11AG of cells which have both pH7 nSMase and pH8 nSMase ([2]; cells with both pH7 nSMase and pH8 nSMase): show resistance
- response to C11AG of cells lacking pH8 nSMase ([2]; solid tumour cells, T cell lymphoma cells, activated or autoreactive T cells): are sensitive
- induction of apoptosis by anti-APO-1 [3]: stimulated induction of apoptosis
